The values that follow come from ChEMBL document CHEMBL5465560, “Selectivity Literature for EUbOPEN Chemogenomic Library” (2024).

Structures are written as SMILES.

The target of assay [1] is Mitogen-activated protein kinase 1 (Homo sapiens, UniProt P28482). The assay is described as follows: Selectivity interaction (Kinase panel (Z-LYTE Assay)) EUB0001632a MAPK1. The following applies: at 10 µM.
Assay [2] addresses SRSF protein kinase 1 (Homo sapiens, UniProt Q96SB4). Kind of assay: Selectivity interaction (Kinase panel (KiNativ target engagement assay in Jurkat cells)) EUB0001635a SRPK1. It counts as cell-based. The following applies: Selectivity number of off-targets 0.0, Selectivity number of targets 233.0, Source Knowledge https://www.sciencedirect.com/science/article/pii/S2451945619300674?via%3Dihub, at 1 µM.

Assay [3] addresses Ribosomal protein S6 kinase alpha-4 (Homo sapiens) (UniProt O75676). Kind of assay: Selectivity interaction (KinomeScan (DiscoverX)) EUB0000655a RPS6KA4. The following applies: at 10 µM.
Assay [4] has as its target MAP/microtubule affinity-regulating kinase 3 (Homo sapiens) (UniProt P27448). The assay is described as follows: Selectivity interaction (Kinase panel (literature)) EUB0001199aCl MARK3. The following applies: at 1 µM.
The target in assay [5] is DNA-dependent protein kinase catalytic subunit (Homo sapiens) (UniProt P78527). Kind of assay: Selectivity interaction (ActivX KiNativ screen (kinase selectivity in THP-1 cell lysates)) EUB0000639a PRKDC. It counts as subcellular. Particulars: lysate, at 0.2 µM.
Assay [6] has as its target T1, Serine/threonine-protein kinase TBK1 (Homo sapiens) (UniProt Q9UHD2).
T1 sequence (whole entry): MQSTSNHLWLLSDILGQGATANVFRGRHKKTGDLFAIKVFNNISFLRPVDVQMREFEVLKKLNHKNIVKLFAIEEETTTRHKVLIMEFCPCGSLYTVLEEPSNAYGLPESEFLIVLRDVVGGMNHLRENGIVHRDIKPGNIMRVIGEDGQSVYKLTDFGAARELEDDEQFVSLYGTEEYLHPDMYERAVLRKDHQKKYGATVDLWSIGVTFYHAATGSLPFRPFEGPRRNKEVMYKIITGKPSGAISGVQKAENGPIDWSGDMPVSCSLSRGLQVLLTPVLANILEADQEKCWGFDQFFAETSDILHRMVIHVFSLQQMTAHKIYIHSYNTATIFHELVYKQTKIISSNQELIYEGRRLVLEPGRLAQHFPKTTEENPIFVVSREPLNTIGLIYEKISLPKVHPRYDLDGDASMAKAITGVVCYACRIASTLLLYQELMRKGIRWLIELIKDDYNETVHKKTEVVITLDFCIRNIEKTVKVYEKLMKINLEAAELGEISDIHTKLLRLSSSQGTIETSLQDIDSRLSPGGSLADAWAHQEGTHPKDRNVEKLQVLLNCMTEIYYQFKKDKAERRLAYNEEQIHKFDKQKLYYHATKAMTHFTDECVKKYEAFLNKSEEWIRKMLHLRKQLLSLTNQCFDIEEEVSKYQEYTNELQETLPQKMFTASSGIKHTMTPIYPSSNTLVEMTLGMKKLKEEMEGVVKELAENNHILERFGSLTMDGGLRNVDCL
Kind of assay: Selectivity interaction (ActivX KiNativ screen (kinase selectivity in THP-1 cell lysates)) EUB0000639a TBK1. It counts as subcellular. The following applies: lysate, at 5 µM.

Assay [7] has as its target T2, Phosphatidylinositol 4,5-bisphosphate 3-kinase catalytic subunit delta isoform (Homo sapiens) (UniProt O00329).
T2 sequence (whole entry): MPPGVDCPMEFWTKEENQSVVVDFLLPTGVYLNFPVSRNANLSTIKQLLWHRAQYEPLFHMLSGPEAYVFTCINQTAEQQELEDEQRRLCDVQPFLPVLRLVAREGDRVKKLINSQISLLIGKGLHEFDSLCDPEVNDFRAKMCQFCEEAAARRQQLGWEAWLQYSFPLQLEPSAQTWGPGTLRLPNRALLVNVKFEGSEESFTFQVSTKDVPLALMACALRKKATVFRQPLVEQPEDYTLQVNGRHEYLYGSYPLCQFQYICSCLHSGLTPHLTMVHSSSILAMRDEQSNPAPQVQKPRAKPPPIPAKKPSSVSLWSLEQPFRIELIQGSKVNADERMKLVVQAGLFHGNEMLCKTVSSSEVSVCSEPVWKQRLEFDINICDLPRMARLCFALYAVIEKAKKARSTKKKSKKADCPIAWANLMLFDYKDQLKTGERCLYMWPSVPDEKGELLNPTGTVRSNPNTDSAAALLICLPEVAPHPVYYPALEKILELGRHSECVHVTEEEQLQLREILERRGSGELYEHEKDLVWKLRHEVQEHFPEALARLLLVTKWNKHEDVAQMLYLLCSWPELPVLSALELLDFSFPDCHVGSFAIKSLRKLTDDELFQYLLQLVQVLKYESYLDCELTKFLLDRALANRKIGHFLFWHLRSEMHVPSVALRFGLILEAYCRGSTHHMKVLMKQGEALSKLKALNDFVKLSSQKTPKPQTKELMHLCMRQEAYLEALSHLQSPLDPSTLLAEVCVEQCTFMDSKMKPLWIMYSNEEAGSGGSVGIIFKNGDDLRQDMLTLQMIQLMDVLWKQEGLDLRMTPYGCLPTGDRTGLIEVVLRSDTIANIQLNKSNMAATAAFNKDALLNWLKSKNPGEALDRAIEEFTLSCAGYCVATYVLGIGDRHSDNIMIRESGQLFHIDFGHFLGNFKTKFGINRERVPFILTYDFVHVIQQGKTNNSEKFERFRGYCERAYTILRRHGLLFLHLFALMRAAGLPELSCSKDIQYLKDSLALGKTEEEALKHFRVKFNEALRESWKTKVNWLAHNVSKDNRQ
The assay is described as follows: Selectivity interaction (KinomeScan (DiscoverX)) EUB0000045b PIK3CD.

SRSF protein kinase 1, sequence (Q96SB4 whole entry): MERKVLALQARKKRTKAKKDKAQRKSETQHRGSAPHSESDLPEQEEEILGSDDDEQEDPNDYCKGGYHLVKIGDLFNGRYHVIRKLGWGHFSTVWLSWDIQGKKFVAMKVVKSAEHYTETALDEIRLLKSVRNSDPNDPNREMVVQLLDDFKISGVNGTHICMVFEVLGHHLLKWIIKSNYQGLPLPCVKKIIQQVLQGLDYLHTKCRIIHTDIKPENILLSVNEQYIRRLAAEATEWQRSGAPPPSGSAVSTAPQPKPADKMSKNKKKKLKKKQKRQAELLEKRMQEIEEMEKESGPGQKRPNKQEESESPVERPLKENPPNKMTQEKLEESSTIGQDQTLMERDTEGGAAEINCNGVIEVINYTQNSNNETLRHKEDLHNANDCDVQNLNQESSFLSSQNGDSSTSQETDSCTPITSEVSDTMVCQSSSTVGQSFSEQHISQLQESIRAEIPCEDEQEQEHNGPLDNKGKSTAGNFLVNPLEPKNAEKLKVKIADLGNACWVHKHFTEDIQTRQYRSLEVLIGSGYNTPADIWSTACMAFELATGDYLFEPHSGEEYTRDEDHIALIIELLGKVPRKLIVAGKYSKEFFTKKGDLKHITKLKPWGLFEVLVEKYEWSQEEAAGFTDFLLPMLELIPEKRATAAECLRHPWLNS
DNA-dependent protein kinase catalytic subunit (Homo sapiens), sequence (P78527 whole entry): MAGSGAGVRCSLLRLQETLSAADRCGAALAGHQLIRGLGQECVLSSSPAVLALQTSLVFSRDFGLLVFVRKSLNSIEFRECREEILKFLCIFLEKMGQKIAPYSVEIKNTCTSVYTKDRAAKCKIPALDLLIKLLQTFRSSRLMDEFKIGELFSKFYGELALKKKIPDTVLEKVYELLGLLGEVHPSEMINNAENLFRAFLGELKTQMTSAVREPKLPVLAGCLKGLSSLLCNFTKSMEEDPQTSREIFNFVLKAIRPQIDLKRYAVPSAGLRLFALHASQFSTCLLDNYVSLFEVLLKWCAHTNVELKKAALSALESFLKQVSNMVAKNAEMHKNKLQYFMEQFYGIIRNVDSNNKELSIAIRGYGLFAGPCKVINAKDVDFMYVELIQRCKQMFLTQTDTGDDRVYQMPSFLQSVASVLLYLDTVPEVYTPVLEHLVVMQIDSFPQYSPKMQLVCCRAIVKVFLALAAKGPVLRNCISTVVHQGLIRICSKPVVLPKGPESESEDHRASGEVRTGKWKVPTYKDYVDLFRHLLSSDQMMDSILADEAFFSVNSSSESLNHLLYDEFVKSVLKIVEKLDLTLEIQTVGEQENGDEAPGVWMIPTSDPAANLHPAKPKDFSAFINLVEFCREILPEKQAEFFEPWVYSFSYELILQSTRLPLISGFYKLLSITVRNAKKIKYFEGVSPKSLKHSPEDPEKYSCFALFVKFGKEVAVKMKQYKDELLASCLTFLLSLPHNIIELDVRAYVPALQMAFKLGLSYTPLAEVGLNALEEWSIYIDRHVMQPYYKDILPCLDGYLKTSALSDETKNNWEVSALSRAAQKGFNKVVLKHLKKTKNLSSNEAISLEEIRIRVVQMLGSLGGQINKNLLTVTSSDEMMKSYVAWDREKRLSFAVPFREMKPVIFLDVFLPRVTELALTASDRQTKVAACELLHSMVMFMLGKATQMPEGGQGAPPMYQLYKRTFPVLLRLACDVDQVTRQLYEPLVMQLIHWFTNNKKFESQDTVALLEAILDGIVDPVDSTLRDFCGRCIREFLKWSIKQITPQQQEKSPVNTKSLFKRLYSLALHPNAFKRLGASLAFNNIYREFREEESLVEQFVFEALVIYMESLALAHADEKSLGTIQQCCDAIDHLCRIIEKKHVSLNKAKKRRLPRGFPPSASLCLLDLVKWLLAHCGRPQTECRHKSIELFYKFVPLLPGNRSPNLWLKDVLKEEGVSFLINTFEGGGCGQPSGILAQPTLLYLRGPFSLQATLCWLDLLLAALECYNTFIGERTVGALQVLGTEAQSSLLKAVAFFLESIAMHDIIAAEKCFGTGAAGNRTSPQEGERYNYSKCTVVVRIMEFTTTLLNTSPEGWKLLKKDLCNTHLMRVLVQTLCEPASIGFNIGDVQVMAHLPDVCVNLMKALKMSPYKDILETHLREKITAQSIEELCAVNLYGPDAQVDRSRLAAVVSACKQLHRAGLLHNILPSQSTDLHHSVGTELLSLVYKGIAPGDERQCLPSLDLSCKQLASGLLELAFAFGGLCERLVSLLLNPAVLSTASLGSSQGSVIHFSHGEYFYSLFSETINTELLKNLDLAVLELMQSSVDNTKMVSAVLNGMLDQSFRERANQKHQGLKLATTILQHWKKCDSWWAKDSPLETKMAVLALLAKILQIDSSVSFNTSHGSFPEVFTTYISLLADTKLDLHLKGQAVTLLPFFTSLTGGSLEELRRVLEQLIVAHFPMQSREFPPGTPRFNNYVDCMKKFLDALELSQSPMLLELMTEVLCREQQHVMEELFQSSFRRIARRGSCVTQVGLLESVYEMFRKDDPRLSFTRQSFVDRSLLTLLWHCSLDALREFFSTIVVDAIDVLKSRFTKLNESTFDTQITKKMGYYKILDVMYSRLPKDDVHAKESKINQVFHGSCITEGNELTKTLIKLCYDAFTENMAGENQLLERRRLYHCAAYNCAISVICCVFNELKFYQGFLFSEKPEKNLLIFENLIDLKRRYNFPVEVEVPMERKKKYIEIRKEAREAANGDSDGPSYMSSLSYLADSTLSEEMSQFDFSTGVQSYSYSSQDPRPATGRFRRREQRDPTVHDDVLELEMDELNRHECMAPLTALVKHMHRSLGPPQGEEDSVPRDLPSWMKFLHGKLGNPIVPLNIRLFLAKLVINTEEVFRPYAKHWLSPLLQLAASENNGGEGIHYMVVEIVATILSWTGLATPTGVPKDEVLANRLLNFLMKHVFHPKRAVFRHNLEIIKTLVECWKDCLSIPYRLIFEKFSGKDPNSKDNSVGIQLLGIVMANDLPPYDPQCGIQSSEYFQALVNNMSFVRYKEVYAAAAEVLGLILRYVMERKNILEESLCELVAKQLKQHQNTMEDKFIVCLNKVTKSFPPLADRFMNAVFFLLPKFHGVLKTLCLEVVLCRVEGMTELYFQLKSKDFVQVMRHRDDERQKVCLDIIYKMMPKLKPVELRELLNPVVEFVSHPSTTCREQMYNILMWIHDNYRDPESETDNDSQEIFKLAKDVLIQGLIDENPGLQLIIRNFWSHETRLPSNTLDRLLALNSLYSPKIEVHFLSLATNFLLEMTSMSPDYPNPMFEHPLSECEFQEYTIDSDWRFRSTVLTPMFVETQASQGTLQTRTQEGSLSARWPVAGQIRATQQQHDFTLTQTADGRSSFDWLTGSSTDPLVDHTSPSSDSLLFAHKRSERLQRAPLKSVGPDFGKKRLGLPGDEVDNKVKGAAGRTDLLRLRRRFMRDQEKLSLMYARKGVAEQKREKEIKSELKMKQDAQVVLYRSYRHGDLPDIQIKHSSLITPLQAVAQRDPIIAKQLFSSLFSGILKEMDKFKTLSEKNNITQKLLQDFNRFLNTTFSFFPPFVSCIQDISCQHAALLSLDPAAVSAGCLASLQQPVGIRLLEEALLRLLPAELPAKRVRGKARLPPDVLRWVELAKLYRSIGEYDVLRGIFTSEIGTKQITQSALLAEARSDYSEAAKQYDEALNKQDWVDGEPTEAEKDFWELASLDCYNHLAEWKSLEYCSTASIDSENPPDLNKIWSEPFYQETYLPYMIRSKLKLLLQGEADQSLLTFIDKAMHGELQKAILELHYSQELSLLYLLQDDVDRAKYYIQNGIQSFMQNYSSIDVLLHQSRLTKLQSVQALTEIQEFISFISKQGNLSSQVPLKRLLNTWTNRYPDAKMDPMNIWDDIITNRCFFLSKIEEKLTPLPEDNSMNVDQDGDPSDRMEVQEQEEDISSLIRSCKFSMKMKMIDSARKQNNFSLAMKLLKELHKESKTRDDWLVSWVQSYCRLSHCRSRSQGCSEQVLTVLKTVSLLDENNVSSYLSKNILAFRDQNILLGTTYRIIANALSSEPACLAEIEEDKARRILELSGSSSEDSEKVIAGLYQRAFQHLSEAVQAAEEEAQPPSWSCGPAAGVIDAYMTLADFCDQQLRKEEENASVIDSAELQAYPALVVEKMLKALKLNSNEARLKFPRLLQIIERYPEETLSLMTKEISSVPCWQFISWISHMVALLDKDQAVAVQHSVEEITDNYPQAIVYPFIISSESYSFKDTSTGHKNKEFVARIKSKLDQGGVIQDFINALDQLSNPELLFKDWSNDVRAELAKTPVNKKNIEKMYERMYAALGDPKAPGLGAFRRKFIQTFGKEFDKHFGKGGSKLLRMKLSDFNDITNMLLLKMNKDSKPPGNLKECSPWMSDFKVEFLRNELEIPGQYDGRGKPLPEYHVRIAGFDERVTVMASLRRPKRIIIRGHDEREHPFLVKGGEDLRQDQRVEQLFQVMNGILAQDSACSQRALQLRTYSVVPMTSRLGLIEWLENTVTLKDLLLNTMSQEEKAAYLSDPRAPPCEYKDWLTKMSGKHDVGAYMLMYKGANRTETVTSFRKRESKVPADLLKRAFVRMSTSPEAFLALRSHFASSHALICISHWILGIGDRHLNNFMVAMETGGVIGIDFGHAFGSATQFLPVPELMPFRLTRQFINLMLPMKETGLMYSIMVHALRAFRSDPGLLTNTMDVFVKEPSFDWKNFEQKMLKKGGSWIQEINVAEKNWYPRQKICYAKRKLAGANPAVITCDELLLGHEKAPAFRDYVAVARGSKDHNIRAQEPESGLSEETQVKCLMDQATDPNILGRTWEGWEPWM
Mitogen-activated protein kinase 1, sequence (P28482 whole entry): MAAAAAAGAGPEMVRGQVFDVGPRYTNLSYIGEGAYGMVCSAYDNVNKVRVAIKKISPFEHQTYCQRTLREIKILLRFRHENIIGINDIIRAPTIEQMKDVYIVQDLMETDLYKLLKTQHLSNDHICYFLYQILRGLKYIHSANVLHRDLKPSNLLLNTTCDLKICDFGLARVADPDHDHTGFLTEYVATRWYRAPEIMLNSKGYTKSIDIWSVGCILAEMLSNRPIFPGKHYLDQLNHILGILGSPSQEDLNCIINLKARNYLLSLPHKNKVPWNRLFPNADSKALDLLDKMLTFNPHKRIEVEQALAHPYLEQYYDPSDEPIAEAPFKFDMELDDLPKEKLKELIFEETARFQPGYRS

As to `Cn1cc(-n2cnc3c(NCc4nc5cc(Cl)c(Cl)cc5[nH]4)nc(N4CCOCC4)nc32)cn1`, in assay [1], the % of control is -3.31%.

Regarding `C=CC(=O)Nc1ccc(C(=O)Nc2[nH]nc3c2CN(C(=O)N[C@H](CN(C)C)c2ccccc2)C3(C)C)cc1`, in assay [2], the % of engagement worked out at 6%.

On to `CN(C)CCOc1ccc(-c2nc(-c3ccncc3)c(-c3ccc4c(c3)CC/C4=N\O)[nH]2)cc1`, for which, in assay [3], the % of control is 100%.

Take `CN1Cc2nccc(-c3cn(C)nc3-c3ccc(F)cc3)c2C1=O`: in assay [4], the % of inhibition is -2%.

`CC[C@@H]1[C@H](F)C(=O)N[C@@H]1COc1nccc2cc(C(N)=O)c(OC)cc12` [ZIMLOVISERTIB]: the % of inhibition in assay [5] is -5.7%; in assay [6] it was 23.9%.

Take `C=CC(=O)Nc1cc(-n2c(=O)ccc3cnc4ccc(-c5ccc(NS(C)(=O)=O)cc5)cc4c32)ccc1C`: the results for the % of control in assay [7] (at 1 µM) and in assay [7] (at 10 µM) were 73% and 100%, respectively.
